{
  "source": "patent US20170261495A1",
  "about": "“MODEL SYSTEMS FOR SCREENING MODULATORS OF mTOR SIGNALING” (SHRINERS HOSPITALS FOR CHILDREN, priority 2015, published 2017)",
  "origin": "cited, not measured here",
  "conditions": "clinical trials",
  "data": [
    {"molecule": "CO[C@H]1C[C@@H]2CC[C@@H](C)[C@@](O)(O2)C(=O)C(=O)N2CCCC[C@H]2C(=O)O[C@H]([C@H](C)C[C@@H]2CC[C@@H](OCCO)[C@H](OC)C2)CC(=O)[C@H](C)/C=C(\\C)[C@@H](O)[C@@H](OC)C(=O)[C@H](C)C[C@H](C)/C=C/C=C/C=C/1C", "note": "[everolimus]", "values": [
      {"measurement": "effects on epilepsy", "setting": "TSC", "value": "minimal"},
      {"measurement": "size of renal and brain tumors", "setting": "TSC (Krueger et al., 2010)", "value": "clear reduction"}
    ]}
  ]
}
